Experiments:
rat prostate = conditions: in vitro and in vivo; Brooks et al. 1981; cited from earlier work
ventral prostate = conditions: rat; Brooks et al. 1981; cited from earlier work
5α-reductase [1] = conditions: Liang et al. 1981; cited from earlier work
5α-reductase [2] = target: T1, 5α-reductase (Homo sapiens, UniProt P18405); experiment: 5α-reductase inhibition in DU 145 cells (conversion of tritiated 4-androstenedione); format: cell-based
T1 construct: host or cells: DU 145 (human prostate carcinoma)
T1 sequence (P18405 1-259): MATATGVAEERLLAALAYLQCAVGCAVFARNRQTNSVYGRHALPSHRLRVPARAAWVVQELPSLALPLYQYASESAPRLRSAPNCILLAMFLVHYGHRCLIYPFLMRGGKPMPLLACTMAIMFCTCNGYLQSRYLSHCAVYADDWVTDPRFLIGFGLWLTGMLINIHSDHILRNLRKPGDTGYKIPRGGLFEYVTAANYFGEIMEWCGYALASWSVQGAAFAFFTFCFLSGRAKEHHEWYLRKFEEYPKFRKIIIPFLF
Experimental: Except where otherwise indicated, 5α-reductase inhibition is measured by the following method. Plates having 24 dishes per unit are used. Into each dish were placed 100,000 cells from the human carcinoma metastatic prostatic cell line DU 145 (ATCC #HTB 81) in MEM medium containing 2% dextran charcoal-treated calf serum, 1% penicillin, 1% streptomycin and 1% non essential amino acids. After 24 h, the medium was removed and replaced by 2.5 ml of MEM medium containing 2% dextran charcoal-treated calf serum, 10 nM of tritiated […] and 1% of ethanol. Each dish had different concentrations of the 5α-reductase inhibitor being tested. The cells were incubated for 24 h at 37° C. under an atmosphere of 5% CO2 saturated with water. The extracellular medium was then removed, centrifuged at 1000 RPM for 10 min., and decanted in test tubes. To these test tubes was added 100 μl of ethanol containing 25 μg of androstanedione, 25 μg of 4-androstenedione, 25 μg of dihydrotestosterone and 25 μg of testosterone. The steroids were then extracted from the mixture by two extractions with 2 ml of diethyl ether. Phase separation was achieved by freezing of the aqueous phase. The organic phase was then evaporated, thus leaving asteroid residue which was dissolved in a few drops of methylene chloride and spotted on TLC plates (Whatman WH 4420222). After developing twice with a mixture of benzene-acetone (9:1), the spots were visualized by U.V. and gaseous iodine, cut, put into separate vials for each steroid and extracted for 15 min with 1 ml of ethanol. After addition of 10 ml of scintillation cocktail (NEN 989), the vials were shaked and counted.
The 5α-reductase activity is the sum of the transformation of 4-androstenedione to androstanedione and of the transformation of testosterone to dihydrotestosterone.

prostate = conditions: men; Imperato-McGinley et al. 1989; cited from earlier work
intraprostatic DHT = conditions: men; Imperato-McGinley et al. 1989; cited from earlier work
type II 5α-reductase = conditions: Andersson et al. 1991; cited from earlier work
type I 5α-reductase = conditions: Andersson et al. 1991; cited from earlier work

Structure (SMILES)	Ki (5α-reductase [2]) [nM]	further results
CCN(CC)C(=O)[C@H]1CC[C@H]2[C@@H]3CC[C@H]4N(C)C(=O)CC[C@]4(C)[C@H]3CC[C@]12C [4-MA, N,N-diethyl-4-methyl-3-oxo-4-aza-5α-androstane-17β-carboxamide]		inhibiting the formation of DHT from testosterone in rat prostate (rat prostate): useful in inhibiting the formation of DHT from testosterone in rat prostate in vitro and in vivo; testosterone-induced increase in ventral prostate weight (ventral prostate): reducing the testosterone-induced increase in ventral prostate weight; 5α-reductase inhibition type (5α-reductase [1]): reversible inhibitor of 5α-reductase
CN1C(=O)CC[C@]2(C)[C@H]3CC[C@]4(C)[C@@H](N(C=O)C5CCCCC5)CC[C@H]4[C@@H]3CC[C@@H]12 [EM 337, 17β-(N-Cyclohexyl-N-formamido)-4-methyl-4-aza-5α-androstan-3-one]	11.9	
CCCCN(C=O)[C@H]1CC[C@H]2[C@@H]3CC[C@H]4N(C)C(=O)CC[C@]4(C)[C@H]3CC[C@]12C [EM 347, 17β-(N-n-butyl-N-formamido)-4-methyl-4-aza-5α-androstan-3-one]	2.6	
CCCNC(=O)N(C1CC1)[C@H]1CC[C@H]2[C@@H]3CC[C@H]4N(C)C(=O)CC[C@]4(C)[C@H]3CC[C@]12C [EM 390]	7.1	
CCNC(=O)N(C1CC1)[C@H]1CC[C@H]2[C@@H]3CC[C@H]4N(C)C(=O)CC[C@]4(C)[C@H]3CC[C@]12C [EM 392, 17βN-(1N-cyclopropyl-2N-ethylurea)-4-methyl-4-aza-5α-androstan-3-one]	13.5	
CCCCNC(=O)N(C1CC1)[C@H]1CC[C@H]2[C@@H]3CC[C@H]4N(C)C(=O)CC[C@]4(C)[C@H]3CC[C@]12C [EM 394]	3.3	
CC(C)NC(=O)N(C1CC1)[C@H]1CC[C@H]2[C@@H]3CC[C@H]4N(C)C(=O)CC[C@]4(C)[C@H]3CC[C@]12C [EM 396]	14	
CN1C(=O)CC[C@]2(C)[C@H]3CC[C@]4(C)[C@@H](N(C(=O)NC5CCCCC5)C5CC5)CC[C@H]4[C@@H]3CC[C@@H]12 [EM 397]	3.2	
CCCCCCN(C=O)[C@H]1CC[C@H]2[C@@H]3CC[C@H]4N(C)C(=O)CC[C@]4(C)[C@H]3CC[C@]12C [EM 402, 17β-(N-n-Hexyl-N-formamido)-4-methyl-4-aza-5α-androstan-3-one]	7.2	
CC(C)CCN(C=O)[C@H]1CC[C@H]2[C@@H]3CC[C@H]4N(C)C(=O)CC[C@]4(C)[C@H]3CC[C@]12C [EM 405, 17β-(N-iso-Amyl-N-formamido)-4-methyl-4-aza-5α-androstan-3-one]	2.2	
CCC(CC)N(C=O)[C@H]1CC[C@H]2[C@@H]3CC[C@H]4N(C)C(=O)CC[C@]4(C)[C@H]3CC[C@]12C [EM 407, 17β-(N-1-Ethylpropyl-N-formamido)-4-methyl-4-aza-5α-androstan-3-one]	10.6	
CN(C(=O)Nc1ccccc1)[C@H]1CC[C@H]2[C@@H]3CC[C@H]4N(C)C(=O)CC[C@]4(C)[C@H]3CC[C@]12C [EM 408, 17βN-(1N-methyl-2N-phenylurea)-4-methyl-4-aza-5α-androstan-3-one]	8.2	
CC(C)CN(C=O)[C@H]1CC[C@H]2[C@@H]3CC[C@H]4N(C)C(=O)CC[C@]4(C)[C@H]3CC[C@]12C [EM 422, 17β-(N-iso-Butyl-N-formamido)-4-methyl-4-aza-5-androstan-3-one]	7.3	
CN1C(=O)CC[C@]2(C)[C@H]3CC[C@]4(C)[C@@H](N(C=O)Cc5ccccc5)CC[C@H]4[C@@H]3CC[C@@H]12 [EM 436, 17β-(N-Benzyl-N-formamido)-4-methyl-4-aza-5α-androstan-3-one]	5.6	
CC(C)(C)NC(=O)[C@H]1CC[C@H]2[C@@H]3CC[C@H]4NC(=O)C=C[C@]4(C)[C@H]3CC[C@]12C [MK-906]		reduction in prostatic size (prostate): 25-30%; intraprostatic concentration of DHT (intraprostatic DHT): reduction in the intraprostatic concentration of DHT; inhibition of the type II enzyme (type II 5α-reductase): potent inhibitor of the type II enzyme; inhibition of the type I enzyme (type I 5α-reductase): weak inhibitor of the type I enzyme

Continued by falling Ki (5α-reductase [2]), values first:

Ki (5α-reductase [2]) [nM]	Structure (SMILES)	further results
29	CN(C=O)[C@H]1CC[C@H]2[C@@H]3CC[C@H]4N(C)C(=O)CC[C@]4(C)[C@H]3CC[C@]12C [EM 316, 17β-(N-methyl-N-formamido)-4-methyl-4-aza-5α-androstan-3-one]	
11.8	CCCCN(C(C)=O)[C@H]1CC[C@H]2[C@@H]3CC[C@H]4N(C)C(=O)CC[C@]4(C)[C@H]3CC[C@]12C [EM 424, 17β-(N-n-butyl-N-acetamido)-4-methyl-4-aza-5α-androstan-3-one]	
11.2	CN1C(=O)CC[C@]2(C)[C@H]3CC[C@]4(C)[C@@H](N(C=O)C5CC5)CC[C@H]4[C@@H]3CC[C@@H]12 [EM 336, 17β-(N-Cyclopropyl-N-formamido)-4-methyl-4-aza-5α-androstan-3-one]	
5.1	CCCN(C=O)[C@H]1CC[C@H]2[C@@H]3CC[C@H]4N(C)C(=O)CC[C@]4(C)[C@H]3CC[C@]12C [EM 423, 17β-(N-n-propyl-N-formamido)-4-methyl-4-aza-5α-androstan-3-one]	
2.3	CN1C(=O)CC[C@]2(C)[C@H]3CC[C@]4(C)[C@@H](N(C(=O)Nc5ccccc5)C5CC5)CC[C@H]4[C@@H]3CC[C@@H]12 [EM 374, 17β-N-(1N-cyclopropyl-2N-phenylurea)-4-methyl-4-aza-5α-androstan-3-one]	
1.8	CCCCCN(C=O)[C@H]1CC[C@H]2[C@@H]3CC[C@H]4N(C)C(=O)CC[C@]4(C)[C@H]3CC[C@]12C [EM 401, 17β(N-n-Amyl-N-formamido)-4-methyl-4-aza-5α-androstan-3-one]	
0.5	CNC(=O)N(C1CC1)[C@H]1CC[C@H]2[C@@H]3CC[C@H]4N(C)C(=O)CC[C@]4(C)[C@H]3CC[C@]12C [EM 373, 17β-N-(1N-cyclopropyl-2N-methylurea)-4-methyl-4-aza-5α-androstan-3-one]	
